Results taken from US20090076130A1, “COMPOUNDS FOR THE INHIBITION OF HISTONE DEACETYLASE” (NATUREWISE BIOTECH & MEDICALS CORPORATION, priority 2007, published 2009).

What was measured:
acetylated histone H4 = assay: Western blotting of hyperacetylated histone H4 in C6 glioma cells; assay type: cell-based, rat
Procedure: Accumulation of hyperacetylated histone H4 was analyzed in the cell lysates by using Western Blotting and the antibody directed against acetylated histone H4 (Upstate). The C6 glioma cells were seeded at a density of 1×10^6 per 10 cm culture dish. After 24 hours, the cells were treated with 10 μg/mL of NBM-HD-1 or 4 mM sodium butyrate for several hours. The whole-cell lysates were prepared by using denaturing SDS sample buffer and then separated on 15% SDS-polyacrylamide gels. […] The amount of acetylated histones was hardly detectable in untreated C6 glioma cells. The amount of acetylated histone H4 of the cells treated with 4 mM sodium butyrate for 2 hours increased. Sodium butyrate was then removed from the culture medium. After 6 hours, the amount of acetylated histone H4 decreased. The accumulation of acetylated histone H4 increased in the cells treated with NBM-HD-1 for 2 hours. […] The highest histone acetylation appeared at 6 hours after the compound had been removed. […] Because NBM-HD-1 is more hydrophobic than sodium butyrate, NBM-HD-1 can be retained in the cells longer than sodium butyrate and continuously induce the acetylation of histone H4.

[1] = tested on: transgenic mouse model of spinal and bulbar muscular atrophy; conditions: cited from earlier work
[2] = tested on: human breast MCF-7 cancer cells; assay: Growth and morphology of breast cancer MCF-7 cells; assay type: cell-based
Procedure: The breast cancer MCF-7 cells, were cultured in Dulbecco's modified Eagle's medium (DMEM; Gibco) supplemented with penicillin G, streptomycin sulphate, 0.5 mM of L-glutamine and 10% fetal bovine serum (FBS; Gibco) at 37° C., 5% CO2 and 95% relative humidity. The cells were seeded at a density of 3×10^5 per well of 6-well plates. After 24 hours, the cells were treated with different concentrations of compound NBM-HD-1 and 4 mM sodium butyrate being used as the positive control. The cells were observed after 48 hours and counted after 96 hours. […] In FIG. 8(A), after the cells were incubated with 2.5 μg/mL (FIG. 8(A)-b), 5 μg/mL (FIG. 8(A)-c) and 10 μg/mL (FIG. 8(A)-d) of NBM-HD-1 for 48 hours, the density of MCF-7 cells reduced dramatically in comparison with that of the control group (FIG. 8(A)-a). The morphology of the MCF-7 cells in the experimental group changed in comparison with that in the control group. […] The results of the cell counting (FIG. 8(B)) indicate that, similar to sodium butyrate, NBM-HD-1 inhibits cell growth.
MCF-7 cancer cells were seeded at a density of 3×10^5 per well in 6-well plates. After 24 hours, the cells were treated with different concentrations of compound NBM-HD-2 and 4 mM sodium butyrate being used as the positive control. The cells were observed and counted after 72 hours. […] In FIG. 13(A), after the cells were incubated with 2.5 μg/mL (FIG. 13(A)-c), 5 μg/mL (FIG. 13(A)-d), 7.5 μg/mL (FIG. 13(A)-e) and 10 μg/mL (FIG. 13(A)-f) of NBM-HD-2 for 72 hours, the density of MCF-7 cells reduced dramatically in comparison with that of the control group (FIG. 13(A)-a). The morphology of the MCF-7 cells in the experimental group changed in comparison with that in the control group.
MCF-7 cancer cells were seeded at a density of 3×10^5 per well of 6-well plates. After 24 hours, the cells were treated with different concentrations of compound NBM-HD-3 and 4 mM sodium butyrate, which was being used as the positive control. The cells were observed and counted after 72 hours. […] In FIG. 14(A), after the cells were incubated with 2.5 μg/mL (FIG. 14(A)-c), 5 μg/mL (FIG. 14(A)-d), 7.5 μg/mL (FIG. 14(A)-e) and 10 μg/mL (FIG. 14(A)-f) of NBM-HD-3 for 72 hours, the density of MCF-7 cells reduced dramatically in comparison with that of the control group (FIG. 14(A)-a). The morphology of the MCF-7 cells in the experimental group changed in comparison with that in the control group. […] The results of the cell counting (FIG. 14(B)) indicate that, similar to sodium butyrate, NBM-HD-3 inhibits cell growth.

[3] = tested on: human giloblastoma DBTRG-05MG cancer cells; assay: Growth and morphology of human giloblastoma DBTRG-05MG cancer cells; assay type: cell-based; conditions: NBM-HD-1 2.5, 5, 10 μg/mL or 4 mM sodium butyrate, 72 hours
Procedure: The human giloblastoma DBTRG-05MG cancer cells were cultured in RPMI medium 1640 (Gibco) supplemented with penicillin G, streptomycin sulphate, 0.5 mM of L-glutamine and 10% fetal bovine serum (FBS; Gibco), 100 mh/L sodium pyruvate (Gibco), and 1% NEAA (Gibco) at 37° C., 5% CO2 and 95% relative humidity. For these experiments, the cells were seeded at a density of 3×10^5 per well of 6-well plates. After 24 hours, the cells were treated with different concentrations of NBM-HD-1 and 4 mM sodium butyrate. The cells were observed and counted after 72 hours. […] In 05MG cells (FIG. 7(A)), after incubation with 2.5 μg/mL (FIG. 7(A)-b), 5 μg/mL (FIG. 7(A)-c) and 10 μg/mL (FIG. 7(A)-d) of NBM-HD-1 for 72 hours, the density of the cells reduced dramatically in comparison with that of the control group (FIG. 7(A)-a). The 05MG cells in the experimental group also changed to become longer than those in the control group.

cyclin D1 = conditions: MCF-7 breast cancer cells; cited from earlier work
SMN2 protein = conditions: fibroblast cells derived from SMA patients, 64 hours of treatment; cited from earlier work
[4] = compound 2.5, 5, 7.5, 10 μg/mL or 4 mM sodium butyrate, 72 hours

## CCCC(=O)[O-].[Na+] [sodium butyrate, reference compound]
Acetylated histone H4; 10 μg/mL NBM-HD-1 or 4 mM sodium butyrate, 2 hours
  accumulation of hyperacetylated histone H4: can increase the accumulation of hyperacetylated histone H4
Acetylated histone H4; after 2 hours treatment and removal from the culture medium, up to 6 hours
  amount of acetylated histone H4 after removal of the compound: decreased
[1]
  phenotypic expression: ameliorates phenotypic expression
[2]; NBM-HD-1 2.5, 5, 10 μg/mL or 4 mM sodium butyrate, observed after 48 hours, counted after 96 hours
  growth of MCF-7 cancer cells: able to inhibit the growth of MCF-7 cells
[2]; [4]
  growth of MCF-7 cancer cells: able to inhibit the growth of MCF-7 cells
[3]
  growth of 05MG cancer cells: could inhibit the proliferation of 05MG cancer cells

## CC(/C=C/C(=O)NO)=C\[C@@H](C)C(=O)c1ccc(N(C)C)cc1 [Trichostatin A]
Cyclin D1
  cyclin D1 degradation: induce ubiquitin-dependent cyclin D1 degradation

## CN(C)c1ccc(C(=O)NCCCCCCC(=O)NO)cc1 [M344]
SMN2 protein
  up-regulation of SMN2 protein expression: up to 7 fold

## COc1cc2c(c(O)c1CCC(C)(C)O)C(=O)C[C@@H](c1ccc(OC)c(OC)c1C/C=C(\C)CCCC(C)(C)O)O2 [NBM-HD-3]
[2]; 2.5, 5, 7.5, 10 μg/mL, 72 hours
  morphology of MCF-7 cancer cells: change their morphology
[2]; [4]
  growth of MCF-7 cancer cells: can inhibit the growth of MCF-7 cancer cells in a dose-dependent manner
